Key:
[1] = test system: antibodies in sera from SARS patients (sera 1a, 1b, 2, 6, 37, 62, London, SARS-yellow, SARS-green); assay type: binding, human; set-up: Binding of serum 6 to linear peptides of protein X1 of SARS-CoV Urbani / Binding of serum 37 to linear peptides of protein X1 of SARS-CoV Urbani / Binding of serum 6 to looped/cyclic peptide (PEPSCAN-ELISA) / Binding of serum 37 to looped/cyclic peptide (PEPSCAN-ELISA) / Binding of serum 37 to looped/cyclic peptides of protein X1 of SARS-CoV Urbani / Binding of serum 6 to linear peptides of protein X2 / Binding of serum 37 to linear peptides of protein X2 / Binding of serum 37 to looped/cyclic peptides of protein X2 of SARS-CoV Urbani / Binding of serum 6 to linear peptides of protein M of SARS-CoV Urbani / Binding of serum 37 to linear peptides of protein M of SARS-CoV Urbani / Binding of serum 6 to looped/cyclic peptides of protein M of SARS-CoV Urbani / Binding of serum 37 to looped/cyclic peptides of protein M of SARS-CoV Urbani / Binding of serum 6 to linear peptides of protein X3 of SARS-CoV Urbani / Binding of serum 37 to linear peptides of protein X3 of SARS-CoV Urbani / Binding of serum 37 to looped/cyclic peptides of protein X3 of SARS-CoV Urbani / Binding of serum 6 to linear peptides of protein X4 of SARS-CoV Urbani / Binding of serum 37 to linear peptides of protein X4 of SARS-CoV Urbani / Binding of serum 37 to looped/cyclic peptides of protein X4 of SARS-CoV Urbani / Binding of serum 6 to linear peptides of protein X5 of SARS-CoV Urbani / Binding of serum 37 to linear peptides of protein X5 of SARS-CoV Urbani / Binding of serum 37 to looped/cyclic peptides of protein X5 of SARS-CoV Urbani / Binding of serum 6 to linear peptides of protein N of SARS-CoV Urbani / Binding of serum 37 to linear peptides of protein N of SARS-CoV Urbani / Binding of serum 6 to linear peptide (PEPSCAN-ELISA) / Binding of serum 1a to looped/cyclic peptides of protein N of SARS-CoV Urbani / Binding of serum 1b to looped/cyclic peptides of protein N of SARS-CoV Urbani / Binding of serum 2 to looped/cyclic peptides of protein N of SARS-CoV Urbani / Binding of serum 6 to looped/cyclic peptides of protein N of SARS-CoV Urbani / Binding of serum 37 to looped/cyclic peptides of protein N of SARS-CoV Urbani / Binding of serum 62 to looped/cyclic peptides of protein N of SARS-CoV Urbani / Binding of serum London to looped/cyclic peptides of protein N of SARS-CoV Urbani / Binding of serum SARS-green to looped/cyclic peptides of protein N of SARS-CoV Urbani: unit not given here
[2] = test system: rabbit serum obtained by immunizing a rabbit with the SARS-CoV strain Frankfurt 1; assay type: binding; set-up: Binding of a rabbit serum to linear peptides / Binding of a rabbit serum to looped peptides / Rabbit serum linear peptides / Rabbit serum looped peptides / Binding of a rabbit serum to linear peptides of protein N of SARS-CoV Urbani (Rabbit serum linear peptides) / Binding of a rabbit serum to looped/cyclic peptides of protein N of SARS-CoV Urbani (Rabbit serum looped peptides): unit not given here

IGVAFLAVFQSATKI
Binding of serum 1a to linear peptides of protein X1 of SARS-CoV Urbani [1]: 0.6 | Binding of serum 1a to looped/cyclic peptide (PEPSCAN-ELISA) [1]: 0.5 | Binding of serum 1b to linear peptides of protein X1 of SARS-CoV Urbani [1]: 0.5 | Binding of serum 1b to looped/cyclic peptide (PEPSCAN-ELISA) [1]: 0.4 | Binding of serum 2 to linear peptides of protein X1 of SARS-CoV Urbani [1]: 0.6 | Binding of serum 2 to looped/cyclic peptide (PEPSCAN-ELISA) [1]: 0.4 | Binding of serum 6 to linear peptides of protein X1 of SARS-CoV Urbani [1]: 0.5 | Binding of serum 6 to looped/cyclic peptide (PEPSCAN-ELISA) [1]: 0.3 | Binding of serum 37 to linear peptides of protein X1 of SARS-CoV Urbani [1]: 0.6 | Binding of serum 37 to looped/cyclic peptide (PEPSCAN-ELISA) [1]: 0.5 | Binding of serum 62 to linear peptides of protein X1 of SARS-CoV Urbani [1]: 0.6 | Binding of serum 62 to looped/cyclic peptide (PEPSCAN-ELISA) [1]: 0.6 | Binding of serum London to linear peptides of protein X1 of SARS-CoV Urbani [1]: 0.2 | Binding of serum London to looped/cyclic peptide (PEPSCAN-ELISA) [1]: 0.2 | Binding of serum SARS-green to linear peptides of protein X1 of SARS-CoV Urbani [1]: 0.2 | Binding of serum SARS-green to looped/cyclic peptide (PEPSCAN-ELISA) [1]: 0.2 | Binding of serum SARS-yellow to linear peptides of protein X1 of SARS-CoV Urbani [1]: 0.3 | Binding of serum SARS-yellow to looped/cyclic peptide (PEPSCAN-ELISA) [1]: 0.3 | Binding of a rabbit serum to linear peptides [2]: 0.1 | Binding of a rabbit serum to looped peptides [2]: 0.6

IIALNKRWQLALYKG
Binding of serum 1a to linear peptides of protein X1 of SARS-CoV Urbani [1]: 0.7 | Binding of serum 1a to looped/cyclic peptide (PEPSCAN-ELISA) [1]: 0.6 | Binding of serum 1b to linear peptides of protein X1 of SARS-CoV Urbani [1]: 0.4 | Binding of serum 1b to looped/cyclic peptide (PEPSCAN-ELISA) [1]: 0.4 | Binding of serum 2 to linear peptides of protein X1 of SARS-CoV Urbani [1]: 0.5 | Binding of serum 2 to looped/cyclic peptide (PEPSCAN-ELISA) [1]: 0.5 | Binding of serum 6 to linear peptides of protein X1 of SARS-CoV Urbani [1]: 0.7 | Binding of serum 6 to looped/cyclic peptide (PEPSCAN-ELISA) [1]: 0.6 | Binding of serum 37 to linear peptides of protein X1 of SARS-CoV Urbani [1]: 0.6 | Binding of serum 37 to looped/cyclic peptide (PEPSCAN-ELISA) [1]: 0.6 | Binding of serum 62 to linear peptides of protein X1 of SARS-CoV Urbani [1]: 0.5 | Binding of serum 62 to looped/cyclic peptide (PEPSCAN-ELISA) [1]: 0.6 | Binding of serum London to linear peptides of protein X1 of SARS-CoV Urbani [1]: 0.3 | Binding of serum London to looped/cyclic peptide (PEPSCAN-ELISA) [1]: 0.4 | Binding of serum SARS-green to linear peptides of protein X1 of SARS-CoV Urbani [1]: 0.3 | Binding of serum SARS-green to looped/cyclic peptide (PEPSCAN-ELISA) [1]: 0.2 | Binding of serum SARS-yellow to linear peptides of protein X1 of SARS-CoV Urbani [1]: 0.5 | Binding of serum SARS-yellow to looped/cyclic peptide (PEPSCAN-ELISA) [1]: 0.5 | Recognition of the peptide by the rabbit serum [2]: recognized

LACFVLAAVYRINWV
Binding of serum 1a to linear peptides of protein M of SARS-CoV Urbani [1]: 0.7 | Binding of serum 1a to looped/cyclic peptides of protein M of SARS-CoV Urbani [1]: 0.7 | Binding of serum 1b to linear peptides of protein M of SARS-CoV Urbani [1]: 0.7 | Binding of serum 1b to looped/cyclic peptides of protein M of SARS-CoV Urbani [1]: 0.5 | Binding of serum 2 to linear peptides of protein M of SARS-CoV Urbani [1]: 0.6 | Binding of serum 2 to looped/cyclic peptides of protein M of SARS-CoV Urbani [1]: 0.9 | Binding of serum 6 to linear peptides of protein M of SARS-CoV Urbani [1]: 0.4 | Binding of serum 6 to looped/cyclic peptides of protein M of SARS-CoV Urbani [1]: 0.7 | Binding of serum 37 to linear peptides of protein M of SARS-CoV Urbani [1]: 0.5 | Binding of serum 37 to looped/cyclic peptides of protein M of SARS-CoV Urbani [1]: 0.6 | Binding of serum 62 to linear peptides of protein M of SARS-CoV Urbani [1]: 0.5 | Binding of serum 62 to looped/cyclic peptides of protein M of SARS-CoV Urbani [1]: 0.7 | Binding of serum London to linear peptides of protein M of SARS-CoV Urbani [1]: 0.4 | Binding of serum London to looped/cyclic peptides of protein M of SARS-CoV Urbani [1]: 0.3 | Binding of serum SARS-green to linear peptides of protein M of SARS-CoV Urbani [1]: 0.6 | Binding of serum SARS-green to looped/cyclic peptides of protein M of SARS-CoV Urbani [1]: 0.3 | Binding of serum SARS-yellow to linear peptides of protein M of SARS-CoV Urbani [1]: 0.3 | Binding of serum SARS-yellow to looped/cyclic peptides of protein M of SARS-CoV Urbani [1]: 0.4 | Rabbit serum linear peptides [2]: 0.3 | Rabbit serum looped peptides [2]: 0.2

LLIQQWIQFMMSRRR
Binding of serum 1a to linear peptides of protein X2 [1]: 0.7 | Binding of serum 1a to looped/cyclic peptides of protein X2 of SARS-CoV Urbani [1]: 0.5 | Binding of serum 1b to linear peptides of protein X2 [1]: 0.5 | Binding of serum 1b to looped/cyclic peptides of protein X2 of SARS-CoV Urbani [1]: 0.5 | Binding of serum 2 to linear peptides of protein X2 [1]: 0.5 | Binding of serum 2 to looped/cyclic peptides of protein X2 of SARS-CoV Urbani [1]: 0.7 | Binding of serum 6 to linear peptides of protein X2 [1]: 0.5 | Binding of serum 6 to looped/cyclic peptides of protein X2 of SARS-CoV Urbani [1]: 0.3 | Binding of serum 37 to linear peptides of protein X2 [1]: 0.6 | Binding of serum 37 to looped/cyclic peptides of protein X2 of SARS-CoV Urbani [1]: 0.5 | Binding of serum 62 to linear peptides of protein X2 [1]: 0.6 | Binding of serum 62 to looped/cyclic peptides of protein X2 of SARS-CoV Urbani [1]: 0.7 | Binding of serum London to linear peptides of protein X2 [1]: 0.4 | Binding of serum London to looped/cyclic peptides of protein X2 of SARS-CoV Urbani [1]: 0.2 | Binding of serum SARS-green to linear peptides of protein X2 [1]: 0.5 | Binding of serum SARS-green to looped/cyclic peptides of protein X2 of SARS-CoV Urbani [1]: 0.3 | Binding of serum SARS-yellow to linear peptides of protein X2 [1]: 0.8 | Binding of serum SARS-yellow to looped/cyclic peptides of protein X2 of SARS-CoV Urbani [1]: 0.4 | Binding of a rabbit serum to linear peptides [2]: 0.5 | Binding of a rabbit serum to looped peptides [2]: 0.6

QSATKIIALNKRWQL
Binding of serum 1a to linear peptides of protein X1 of SARS-CoV Urbani [1]: 0.8 | Binding of serum 1a to looped/cyclic peptide (PEPSCAN-ELISA) [1]: 0.4 | Binding of serum 1b to linear peptides of protein X1 of SARS-CoV Urbani [1]: 0.7 | Binding of serum 1b to looped/cyclic peptide (PEPSCAN-ELISA) [1]: 0.4 | Binding of serum 2 to linear peptides of protein X1 of SARS-CoV Urbani [1]: 0.7 | Binding of serum 2 to looped/cyclic peptide (PEPSCAN-ELISA) [1]: 0.5 | Binding of serum 6 to linear peptides of protein X1 of SARS-CoV Urbani [1]: 0.7 | Binding of serum 6 to looped/cyclic peptide (PEPSCAN-ELISA) [1]: 0.6 | Binding of serum 37 to linear peptides of protein X1 of SARS-CoV Urbani [1]: 0.7 | Binding of serum 37 to looped/cyclic peptide (PEPSCAN-ELISA) [1]: 0.6 | Binding of serum 62 to linear peptides of protein X1 of SARS-CoV Urbani [1]: 0.8 | Binding of serum 62 to looped/cyclic peptide (PEPSCAN-ELISA) [1]: 0.6 | Binding of serum London to linear peptides of protein X1 of SARS-CoV Urbani [1]: 0.4 | Binding of serum London to looped/cyclic peptide (PEPSCAN-ELISA) [1]: 0.4 | Binding of serum SARS-green to linear peptides of protein X1 of SARS-CoV Urbani [1]: 0.4 | Binding of serum SARS-green to looped/cyclic peptide (PEPSCAN-ELISA) [1]: 0.4 | Binding of serum SARS-yellow to linear peptides of protein X1 of SARS-CoV Urbani [1]: 0.5 | Binding of serum SARS-yellow to looped/cyclic peptide (PEPSCAN-ELISA) [1]: 0.4 | Recognition of the peptide by the rabbit serum [2]: recognized

Reference: patent publication US20070128217A1 (priority 2003, published 2007)
